Structures can show the parent of a compound that is named as a salt.
Experiments:
[1] = for reduction of the elimination rate: patients with Child C cirrhosis vs control subjects; for decrease in Cl/F: Child C cirrhosis compared with control subjects; for decrease of the elimination rate by liver cirrhosis: liver cirrhosis (Child class not stated) vs control subjects
[2] = Galactose elimination capacity; format: in vivo, human; conditions: patients with Child C cirrhosis
[3] = target: CYP2C9 (Homo sapiens, UniProt P11712); conditions: patients with Child C cirrhosis vs control subjects
[4] = monkeys; cited from earlier work

CYP2C9, sequence (P11712 whole entry): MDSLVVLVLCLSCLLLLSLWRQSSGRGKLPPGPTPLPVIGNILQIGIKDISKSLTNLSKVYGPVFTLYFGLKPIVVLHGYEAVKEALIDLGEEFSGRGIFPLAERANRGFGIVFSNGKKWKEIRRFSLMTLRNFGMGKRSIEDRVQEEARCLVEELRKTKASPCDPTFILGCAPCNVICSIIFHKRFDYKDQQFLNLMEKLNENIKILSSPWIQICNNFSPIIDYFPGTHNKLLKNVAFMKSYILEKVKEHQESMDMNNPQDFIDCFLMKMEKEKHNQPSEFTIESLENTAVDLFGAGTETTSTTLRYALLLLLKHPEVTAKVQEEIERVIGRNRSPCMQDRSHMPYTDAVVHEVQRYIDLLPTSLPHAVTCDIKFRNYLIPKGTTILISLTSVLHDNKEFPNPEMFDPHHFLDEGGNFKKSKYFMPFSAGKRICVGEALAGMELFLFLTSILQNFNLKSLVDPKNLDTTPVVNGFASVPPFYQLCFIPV

Cn1c(=O)c2c(ncn2C)n(C)c1=O [Caffeine, caffeine]
reduction of the elimination rate [1]: 51%

O=C[C@H](O)[C@@H](O)[C@@H](O)[C@H](O)CO [Galactose, galactose]
galactose elimination capacity as % of controls (dropping to) [2]: 18%

Cc1ncc2n1-c1ccc(Cl)cc1C(c1ccccc1F)=NC2 [Midazolam, midazolam]
decrease in Cl/F [1]: 84%
ratio of the bioavailabilities Fcirrhosis Child C/Fcontrols ([1]; assuming equal volume of distribution in cirrhosis and controls): 1.73
clearance ([1]; human, in vivo, clearance corrected for bioavailability, controls): ~1330 mL/min

CC(C(=O)O)c1ccc(-c2ccccc2)c(F)c1 (stereo not shown) [Flurbiprofen, flurbiprofen]
change of metabolic ratio 4-hydroxyflurbiprofen/flurbiprofen [3]: remained unchanged

CC(C(=O)O)c1ccc(-c2ccc(O)cc2)c(F)c1 (stereo not shown) [4-Hydroxyflurbiprofen, 4-hydroxyflurbiprofen]
increase in the AUC0–24h by liver cirrhosis ([1]; liver cirrhosis vs control subjects (Child class not stated)): 58%

COCCc1ccc(OCC(O)CNC(C)C)cc1 (stereo not shown) [Metoprolol, metoprolol tartrate]
decrease of the elimination rate by liver cirrhosis [1]: 37%
Cl/F as % of control subjects (dropped to) ([1]; patients with Child C cirrhosis): 22%

COc1ccc2[nH]c([S+]([O-])Cc3ncc(C)c(OC)c3C)nc2c1 (stereo not shown) [Omeprazole, omeprazole]
decrease in Cl/F [1]: 91%
decrease of the elimination rate by liver cirrhosis [1]: 75%

O=C1Nc2ccc(Cl)cc2[C@@](C#CC2CC2)(C(F)(F)F)O1 [Efavirenz, efavirenz]
reduction of the elimination rate [1]: 30%
bioavailability [4]: 42%
